Laboratory results as given in publication PMC3883290, “Functional characterization in Xenopus oocytes of Na^+ transport systems from durum wheat reveals diversity among two HKT1;4 transporters” (Journal of Experimental Botany, 2013).

Biological target: T1, TdHKT1;4-2 (Triticum turgidum, UniProt U5YMY4)
T1 construct: full-length coding region (ORF 1686 bp, 562 residues as printed) in pGEMXho, cRNA expressed in Xenopus laevis oocytes
T1 sequence (U5YMY4 1-561): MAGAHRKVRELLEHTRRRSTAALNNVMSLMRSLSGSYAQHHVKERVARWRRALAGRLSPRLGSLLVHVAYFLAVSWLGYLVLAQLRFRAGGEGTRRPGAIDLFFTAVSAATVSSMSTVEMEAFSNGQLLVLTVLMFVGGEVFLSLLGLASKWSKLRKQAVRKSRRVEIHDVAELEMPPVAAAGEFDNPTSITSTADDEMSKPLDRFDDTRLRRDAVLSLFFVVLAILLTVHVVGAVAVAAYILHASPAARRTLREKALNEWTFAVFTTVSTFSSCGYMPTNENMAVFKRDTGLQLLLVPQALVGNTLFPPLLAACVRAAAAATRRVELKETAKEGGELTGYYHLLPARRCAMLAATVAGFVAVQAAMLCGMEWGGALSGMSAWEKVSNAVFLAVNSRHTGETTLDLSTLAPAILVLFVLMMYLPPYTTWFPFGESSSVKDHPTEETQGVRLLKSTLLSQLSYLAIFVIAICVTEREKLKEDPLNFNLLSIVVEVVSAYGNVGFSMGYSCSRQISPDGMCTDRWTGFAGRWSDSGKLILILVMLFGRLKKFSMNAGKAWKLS
Assay: two-electrode voltage clamp, Xenopus oocytes
Format: cell-based
Conditions: 500 µM quinine; 1 mM external Na+ (glutamate salt); pH 5.5; inward and outward currents

SMILES: C=C[C@H]1CN2CC[C@H]1C[C@H]2[C@H](O)c1ccnc2ccc(OC)cc12 [quinine]
- % decrease of currents at 500 μM: ~ 25%
